The values below come from publication PMC9609429 (Pharmaceuticals, 2022).

In one assay the target is α1-adrenoceptor. Briefly: α1-adrenoceptor radioligand binding assay ([3H]-prazosin, rat cerebral cortex). The note with it: rat cortex tissue. Here is the method: The α1-, α2-, and β1-adrenoceptor radioligand binding assay was carried out on the rat cerebral cortex. [^3H]-prazosin (19.5 Ci/mmol, α1-adrenoceptor), [^3H]-clonidine (70.5 Ci/mmol, α2-adrenoceptor), and [^3H]-CGP-12177 (48 Ci/mmol, β1-adrenergic receptor) were used as specific ligands. The brains were homogenized using ULTRA-TURRAX homogenizer in 10 mL of an ice-cold 50 mM Tris–HCl buffer (pH 7.6). Homogenates were centrifuged at 20,000× g for 20 min (0–4 °C). Next, the cell pellet was resuspended in the Tris–HCl buffer and centrifuged again. Radioligand binding assays were performed in plates (MultiScreen/Millipore). The final incubation mixture (volume 300 μL) consisted of 240 μL of the tissue suspension, 30 μL of radioligand solution, and 30 μL of the buffer containing 7–8 concentrations of the tested compound. […] The incubation was terminated by rapid filtration through Whatman GF/C filters using a vacuum manifold (Millipore). The filters were then washed twice with the assay buffer and placed in scintillation vials with a liquid scintillation cocktail. Radioactivity was measured in a WALLAC 1409 DSA liquid scintillation counter (Perkin Elmer, Waltham, MA, USA). All the assays were made in duplicates and the inhibitory constants (Ki) were estimated.

Assay [1] concerns adrenaline-induced arrhythmia in rats. The note with it: administered intravenously; cited from earlier work.

SMILES strings stand for the structures.

As to `Cc1ccc(N(CC2=NCCN2)c2cccc(O)c2)cc1` [Phentolamine, phentolamine, reference compound], on α1-adrenoceptor, the “Adrenergic Receptors—pKi α1” value turned out to be 8.04. Consider `COc1ccccc1OCCNCC(O)COc1cccc2[nH]c3ccccc3c12` (centres unmarked) [carvedilol], for which, in assay [1], the “ED50 (adrenaline-induced arrhythmia)” value was 0.36 mg/kg.
